# Assay results taken from PubChem BioAssay (NCI).
#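 Where inhibition never reached the appropriate level, the endpoint shown equals the highest concentration tested. Otherwise, values were interpolated linearly from a five-concentration, 48-hour dose response in 96-well plates. Definition used: TGI = concentration required for complete inhibition of growth.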
# Experiments:
# Test in all cases: NCI tumour cell line growth inhibition, 48 h
# [1] = test system: RXF 393 renal
# [2] = test system: KM12 colon
# [3] = test system: SK-OV-3 ovarian
# [4] = test system: MALME-3M melanoma
# [5] = test system: MDA-MB-231 breast
# [6] = test system: MOLT-4 leukemia
# [7] = test system: EKVX NSCLC
# [8] = test system: SK-MEL-2 melanoma
# [9] = test system: A549 NSCLC
# [10] = test system: MCF7 breast
# [11] = test system: BT-549 breast
# [12] = test system: RPMI-8226 leukemia
# [13] = test system: SNB-19 CNS
# [14] = test system: OVCAR-3 ovarian
# [15] = test system: SN12C renal
# [16] = test system: SK-MEL-28 melanoma
# [17] = test system: 786-0 renal
# [18] = test system: K-562 leukemia
# [19] = test system: HCT-116 colon
# [20] = test system: COLO 205 colon
# [21] = test system: SW-620 colon
# [22] = test system: CCRF-CEM leukemia
# [23] = test system: U251 CNS
# [24] = test system: PC-3 prostate
# [25] = test system: HS 578T breast
# [26] = test system: SF-295 CNS
# [27] = test system: A498 renal
# [28] = test system: UACC-62 melanoma
# [29] = test system: NCI-H226 lung
# [30] = test system: SR leukemia
# [31] = test system: OVCAR-8 ovarian
# [32] = test system: SK-MEL-5 melanoma
# [33] = test system: M14 melanoma
# [34] = test system: SNB-75 CNS
# [35] = test system: IGROV1 ovarian
# [36] = test system: DU-145 prostate
# [37] = test system: CAKI-1 renal
# [38] = test system: OVCAR-5 ovarian
# [39] = test system: MDA-MB-435
# [40] = test system: HT29 colon
# [41] = test system: LOX IMVI melanoma
# [42] = test system: NCI-H522 lung
# [43] = test system: NCI/ADR-RES ovarian
# [44] = test system: HOP-62 NSCLC
# [45] = test system: T-47D breast
# [46] = test system: MDA-N
# [47] = test system: UO-31 renal
# [48] = test system: SF-268 CNS
# [49] = test system: NCI-H460 lung
# [50] = test system: UACC-257 melanoma
# [51] = test system: ACHN renal
# [52] = test system: SF-539 CNS
# [53] = test system: HCC-2998 colon
# [54] = test system: HL-60(TB) leukemia
# [55] = test system: TK-10 renal
structure (smiles),measurement,setting,value
C[N+]12C=CC=C1C(N1CCCC1)c1scc(-c3ccccc3)c12 (centres undefined),TGI,[1],90.1 µM
same,TGI,[2],31.3 µM
same,TGI,[3],> 100 µM
same,TGI,[4],49.8 µM
same,TGI,[5],> 100 µM
same,TGI,[6],64.6 µM
same,TGI,[7],> 100 µM
same,TGI,[8],42.3 µM
same,TGI,[9],> 100 µM
same,TGI,[10],71.7 µM
same,TGI,[11],> 100 µM
same,TGI,[12],> 100 µM
same,TGI,[13],> 100 µM
same,TGI,[14],87.8 µM
same,TGI,[15],70 µM
same,TGI,[16],> 100 µM
same,TGI,[17],> 100 µM
same,TGI,[18],29.1 µM
same,TGI,[19],> 100 µM
same,TGI,[20],41.2 µM
same,TGI,[21],> 100 µM
same,TGI,[22],> 100 µM
same,TGI,[23],> 100 µM
same,TGI,[24],89.9 µM
same,TGI,[25],67.5 µM
same,TGI,[26],> 100 µM
same,TGI,[27],> 100 µM
same,TGI,[28],> 100 µM
same,TGI,[29],28.9 µM
same,TGI,[30],37.4 µM
same,TGI,[31],> 100 µM
same,TGI,[32],27.6 µM
same,TGI,[33],> 100 µM
same,TGI,[34],47.8 µM
same,TGI,[35],31.6 µM
same,TGI,[36],> 100 µM
same,TGI,[37],> 100 µM
same,TGI,[38],> 100 µM
same,TGI,[39],> 100 µM
same,TGI,[40],24.4 µM
same,TGI,[41],> 100 µM
same,TGI,[42],29.7 µM
same,TGI,[43],> 100 µM
same,TGI,[44],> 100 µM
same,TGI,[45],78.4 µM
same,TGI,[46],84.3 µM
same,TGI,[47],> 100 µM
same,TGI,[48],> 100 µM
O=C(/C=C/c1ccccc1)Oc1ccc(C(=O)/C=C/c2ccc(Cl)cc2)cc1,TGI,[1],> 100 µM
same,TGI,[2],> 100 µM
same,TGI,[3],> 100 µM
same,TGI,[4],> 100 µM
same,TGI,[5],> 100 µM
same,TGI,[6],> 100 µM
same,TGI,[49],> 100 µM
same,TGI,[7],> 100 µM
same,TGI,[8],> 100 µM
same,TGI,[9],> 100 µM
same,TGI,[10],> 100 µM
same,TGI,[11],> 100 µM
same,TGI,[12],> 100 µM
same,TGI,[50],> 100 µM
same,TGI,[13],> 100 µM
same,TGI,[14],> 100 µM
same,TGI,[51],> 100 µM
same,TGI,[15],> 100 µM
same,TGI,[16],> 100 µM
same,TGI,[17],> 100 µM
same,TGI,[18],> 100 µM
same,TGI,[19],> 100 µM
same,TGI,[20],> 100 µM
same,TGI,[52],> 100 µM
same,TGI,[21],> 100 µM
same,TGI,[22],> 100 µM
same,TGI,[23],> 100 µM
same,TGI,[24],> 100 µM
same,TGI,[26],> 100 µM
same,TGI,[27],> 100 µM
same,TGI,[28],> 100 µM
same,TGI,[30],> 100 µM
same,TGI,[53],> 100 µM
same,TGI,[54],> 100 µM
same,TGI,[31],> 100 µM
same,TGI,[32],> 100 µM
same,TGI,[33],> 100 µM
same,TGI,[34],> 100 µM
same,TGI,[35],> 100 µM
same,TGI,[36],> 100 µM
same,TGI,[37],> 100 µM
same,TGI,[38],> 100 µM
same,TGI,[39],> 100 µM
same,TGI,[40],> 100 µM
same,TGI,[55],> 100 µM
same,TGI,[43],> 100 µM
same,TGI,[44],> 100 µM
same,TGI,[45],> 100 µM
same,TGI,[46],> 100 µM
same,TGI,[47],> 100 µM
same,TGI,[48],> 100 µM
